In data set [1] the test system is Mycobacterium tuberculosis H37Rv. The data set can be described thus: microbe, parasite or virus in culture.
Description: GSK_TB: Intracellular minimum inhibitory concentration (MIC) H37Rv assay
Data set [2] in a line: physchem. Conditions: buffer, pH 7.4.
Description: GSK_TB: GSK in-house hydrophobicity assay at pH7.4 (logD)
A short description of data set [3]: physchem. Conditions: phosphate buffered saline, pH 7.4.
Data set [4] in a line: physchem. Conditions: octanol/water.
Description: GSK_TB: GSK in-house hydrophobicity assay (logP)

In brackets after ≈: the same amount, converted by molar mass.

A word on the logD: it is the decadic logarithm of the distribution of all forms, ionised or not, between an organic phase and buffer at a given pH. A higher logD goes with higher lipophilicity. Broadly, the kinetic solubility is the concentration staying in solution when a stock, usually in DMSO, is diluted into the medium. What is called logP is the decadic logarithm of the partition coefficient of the neutral form, usually between octanol and water. A high value points to a more lipophilic compound.

Turning to `CCOC(=O)CC[C@H](NC(=O)c1ccc(S(=O)(=O)Nc2ccc3nc(N)[nH]c(=O)c3c2)cc1)C(=O)OCC`, the MIC90 in data set [1] came to 1.5 µM (≈ 0.818 µg/mL). Moreover, in “physchem [2]”, the logD came out at 2.46. In “physchem [3]”, this compound registered a solubility (kinetic) of 300 µM (≈ 164 µg/mL). Moreover, the logP in the data set “physchem [4]” was 2.45.
For `O=C(Cc1ccc(F)cc1)Nc1nc(-c2ccccn2)cs1`, in that order: 9.3 µM (≈ 2.91 µg/mL), 4.32, 14 µM (≈ 4.39 µg/mL) and 4.33.
The corresponding values for `CCCCc1ccc(C(=O)Nc2nccc3ccccc23)nc1` are 9.23 µM (≈ 2.82 µg/mL), 6.65, 98 µM (≈ 29.9 µg/mL) and 6.94.
Regarding `Cc1cc(/C=C/c2cccc(C(=O)O)c2)cc(Cl)c1OC[C@@H]1CCCN1C`, the MIC90 in data set [1] came out at 0.457 µM (≈ 0.176 µg/mL). In “physchem [3]”, this compound registered a kinetic solubility of 486 µM (≈ 188 µg/mL).
The corresponding values for `Nc1ccccc1Nc1ccc2c(c1)OCO2` are 1.82 µM (≈ 0.415 µg/mL) and 139 µM (≈ 31.7 µg/mL).
In turn, `O=C(CCSc1ccc(Cl)cc1)Nc1nc(-c2ccccn2)cs1` had an MIC90 in data set [1] of 8.41 µM (≈ 3.16 µg/mL).
Same read-out and setting: the result for `c1cc2c(s1)CCOC21CCN(Cc2ccc3c(c2)OCCO3)CC1` reads 1 µM (≈ 0.357 µg/mL).
Compound `COc1ccc(-c2cc(=O)c3cc(OCC(=O)OC(C)C)ccc3o2)cc1` had an MIC90 in data set [1] of 2.95 µM (≈ 1.09 µg/mL). The same compound registered a pH-dependent lipophilicity (logD) in “physchem [2]” of 5.91. This compound also gave a logP in the data set “physchem [4]” of 6.29.
In the case of `COc1cccc(-c2nc3c(N4CCCC4)cccc3n2CC2CCCN2)n1.O=C(O)C(F)(F)F` (configuration not stated), the MIC90 in data set [1] is 9.77 µM. Further, the kinetic solubility in the data set “physchem [3]” turned out to be 78 µM.
Turning to `Cc1cccc(-c2nc(Nc3ccncn3)c3c(C)csc3n2)n1`, the MIC90 in data set [1] is 0.3 µM (≈ 0.1 µg/mL).
On to `CSc1ccc(C(=O)Nc2nc(-c3ccccn3)cs2)cc1`, for which the MIC90 in data set [1] stood at 8.71 µM (≈ 2.85 µg/mL). Besides, in “physchem [2]”, the pH-dependent lipophilicity (logD) was 5.07. This compound gave a log partition coefficient (logP) in the data set “physchem [4]” of 5.06.
`O=C(NC12CC3CC(CC(C3)C1)C2)c1cc2cc(Cl)ccc2[nH]1`: the MIC90 in data set [1] was 1 µM (≈ 0.329 µg/mL).
Take `CSc1ccccc1C(=O)Nc1nc(-c2ccccn2)cs1`: the MIC90 in data set [1] worked out at 1.74 µM (≈ 0.569 µg/mL).
`Cc1cc(CN2CCC3(CC2)OCCc2sccc23)oc1C` displayed an MIC90 in data set [1] of 3.7 µM (≈ 1.17 µg/mL). Moreover, the kinetic solubility in “physchem [3]” came out at 289 µM (≈ 91.7 µg/mL).
For `Nc1cccnc1Nc1ccc(Cl)cc1`, in that order: 0.232 µM (≈ 0.0509 µg/mL) and 94 µM (≈ 20.6 µg/mL).
As to `Cc1ccc(C2CC(C(F)(F)F)n3ncc(C(=O)NCc4ccc5c(c4)OCO5)c3N2)cc1` (configuration not stated), in data set [1], the MIC90 was 5.4 µM (≈ 2.48 µg/mL).
The same measure, in the same setting: the figure for `COc1ccc2nc(C)cc(OCC(=O)Nc3ccccc3OC)c2c1` is 0.4 µM (≈ 0.141 µg/mL); for `CCc1ccc(CN2CCC3(CC2)OCCc2sccc23)s1` it is 1 µM (≈ 0.334 µg/mL).
In data set [1], `O=C(c1cnn(C(=O)c2ccco2)c1)c1cc(F)ccc1O` displayed an MIC90 of 9.55 µM (≈ 2.87 µg/mL). The same compound displayed a kinetic solubility in “physchem [3]” of 1 µM (≈ 0.3 µg/mL).
With `O=C(c1[nH]nc2c1CCCC2)N1CCN(Cc2ccc3c(c2)OCO3)CC1`, the MIC90 in data set [1] amounted to 4.5 µM (≈ 1.66 µg/mL).
`O=C(C=Cc1ccccc1)N1CCN(Cc2ccc3c(c2)OCO3)CC1` had an MIC90 in data set [1] of 3.7 µM (≈ 1.3 µg/mL). In the data set “physchem [2]”, this compound came in with a log distribution coefficient (logD) of 5.16. This compound also displayed a logP in the data set “physchem [4]” of 5.44.
In turn, `c1ccc(-c2nc(N3CCCCCC3)nc(-n3ccnc3)n2)cc1` registered an MIC90 in data set [1] of 7.41 µM (≈ 2.38 µg/mL). The same compound displayed a solubility (kinetic) in “physchem [3]” of 1 µM (≈ 0.32 µg/mL).
In data set [1], `c1ncn(-c2ccc(COc3ccc(-n4cncn4)cc3)cc2)n1` displayed an MIC90 of 4.73 µM (≈ 1.51 µg/mL).
Same read-out and setting: the result for `Cn1cc(NC(=O)c2cc(NC(=O)CNC(=N)N)cn2C)cc1C(=O)NCCC(=N)N` [NETROPSIN CHLORIDE] reads 6.46 µM.
Compound `Cc1ccccc1CN1CCC(O)(c2ccc(Cl)c(C(F)(F)F)c2)CC1` had an MIC90 in data set [1] of 4.2 µM (≈ 1.61 µg/mL). Further, the solubility (kinetic) in “physchem [3]” turned out to be 77 µM (≈ 29.6 µg/mL).
`Cc1csc2nc(-c3ccccn3)nc(Nc3ccncn3)c12.O=C(O)C(F)(F)F` gave an MIC90 in data set [1] of 1.7 µM. This compound displayed a kinetic solubility in the data set “physchem [3]” of 231 µM.
As for `Cc1cccc(-c2nc(Nc3ccncn3)c3sccc3n2)n1`, the MIC90 in data set [1] came to 0.5 µM (≈ 0.16 µg/mL).
Same read-out and setting: the result for `CCc1ccc([C@@H]2C[C@H](C(F)(F)F)n3ncc(C(=O)NCc4ccc(OC)cc4)c3N2)cc1` reads 4.9 µM (≈ 2.25 µg/mL).
As for `CCc1nnc(NC(=O)c2cccc(C(=O)Nc3nnc(CC)s3)n2)s1`, the MIC90 in data set [1] was found to be 8 µM (≈ 3.12 µg/mL). The solubility (kinetic) in “physchem [3]” worked out at 26 µM (≈ 10.1 µg/mL).
With `Clc1ccc(Nc2nc(-c3ccccn3)cs2)nc1`, the MIC90 in data set [1] came to 5.9 µM (≈ 1.7 µg/mL). The compound further showed a log distribution coefficient (logD) in the data set “physchem [2]” of 5.35. This compound displayed a logP in the data set “physchem [4]” of 6.53.

The record behind these values is ChEMBL document CHEMBL2095176, “GSK Tuberculosis Screening Data”.
